In patent US20210253557A1, “SUBSTITUTED TRIAZOLE DERIVATIVES AND USES THEREOF” (Bayer Pharma Aktiengesellschaft, priority 2017, published 2021):
Structures can show the parent of a compound that is named as a salt.

How the values were obtained:
human V2 receptor = target: T1, human V2 receptor (Homo sapiens, UniProt P30518); experiment: Cellular in vitro assay for determining vasopressin receptor activity (V2, CRE-luciferase); format: cell-based; details: CHO cell line transfected with the human V2 receptor; [Arg8]-vasopressin at EC50 concentration; read-out: IC50 hV2
T1 construct: expressed in transfected cells; host or cells: CHO K1 (ATCC) expressing firefly luciferase under a CRE-responsive promoter
T1 sequence (P30518 whole entry): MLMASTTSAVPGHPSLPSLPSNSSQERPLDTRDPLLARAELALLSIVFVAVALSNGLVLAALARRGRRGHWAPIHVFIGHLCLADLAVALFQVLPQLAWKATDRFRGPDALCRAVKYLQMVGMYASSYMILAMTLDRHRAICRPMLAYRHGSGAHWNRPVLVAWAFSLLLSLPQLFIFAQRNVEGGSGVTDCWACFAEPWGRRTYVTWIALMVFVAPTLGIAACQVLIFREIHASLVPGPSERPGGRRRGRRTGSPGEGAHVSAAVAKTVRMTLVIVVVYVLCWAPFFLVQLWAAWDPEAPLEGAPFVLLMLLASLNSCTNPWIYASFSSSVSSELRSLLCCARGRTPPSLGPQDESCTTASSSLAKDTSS
Protocol: (§1) B-1. Cellular In Vitro Assay for Determining Vasopressin Receptor Activity
(§2) The identification of agonists and antagonists of the V1a and V2 vasopressin receptors from humans, rats and dogs as well as the quantification of the activity of the compounds of the invention is carried out using recombinant cell lines. These cell lines originally derive from a hamster's ovary epithelial cell (Chinese Hamster Ovary, CHO K1, ATCC: American Type Culture Collection, Manassas, Va. 20108, USA). The test cell lines constitutively express the human, rat or dog V1a or V2 receptors. In case of the Gαq-coupled V1a receptors, cells are also stably transfected with a modified form of the calcium-sensitive photoproteins aequorin (human and rat V1a) or obelin (dog V1a), which, after reconstitution with the cofactor coelenterazine, emit light when there are increases in free calcium concentrations [Rizzuto R, Simpson A W, Brini M, Pozzan T, Nature 358, 325-327 (1992); Illarionov B A, Bondar V S, Illarionova V A, Vysotski E S, Gene 153 (2), 273-274 (1995)]. The resulting vasopressin receptor cells react to stimulation of the recombinantly expressed V1a receptors by intracellular release of calcium ions, which can be quantified by the resulting photoprotein luminescence. The Gs-coupled V2 receptors are stably transfected into cell lines expressing the gene for firefly luciferase under control of a CRE-responsible promoter. Activation of V2 receptors induces the activation of the CRE-responsive promoter via cAMP increase, thereby inducing the expression of firefly luciferase. The light emitted by photoproteins of V1a cell lines as well as the light emitted by firefly luciferase of V2 cell lines corresponds to the activation or inhibition of the respective vasopressin receptor. The bioluminescence of the cell lines is detected using a suitable luminometer [Milligan G, Marshall F, Rees S, Trends in Pharmacological Sciences 17, 235-237 (1996)].
Vasopressin V2 receptor cell lines:
On the day before the assay, the cells are plated out in culture medium (DMEM/F12, 2% FCS, 2 mM glutamine, 10 mM HEPES) in 384-well microtiter plates and kept in a cell incubator (96% humidity, 5% v/v CO2, 37° C.). On the day of the assay, test compounds in various concentrations and the agonist [Arg^8]-vasopressin at EC50 concentration are added together to the wells, and plates are incubated for 3 hours in a cell incubator. Upon addition of the cell lysis reagent Triton™ and the substrate luciferin, luminescence of firefly luciferase is measured in a luminometer.
(§3) Table 1A below lists individual IC50 values for the compounds of the invention (including racemic mixtures as well as separated enantiomers) that were obtained from cell lines transfected with the human V1a or V2 receptor: […]

human V1a receptor = target: T2, human V1a receptor (Homo sapiens, UniProt P37288); experiment: Cellular in vitro assay for determining vasopressin receptor activity (V1a, aequorin luminescence); format: cell-based; details: for IC50: CHO cell line transfected with the human V1a receptor, [Arg8]-vasopressin at EC50 concentration, read-out: IC50 hV1a; for ratio IC50 hV2/hV1a: selectivity ratio of IC50 hV2 to IC50 hV1a
T2 construct: expressed in transfected cells; host or cells: CHO K1 (ATCC), also stably transfected with a modified aequorin
T2 sequence (P37288 whole entry): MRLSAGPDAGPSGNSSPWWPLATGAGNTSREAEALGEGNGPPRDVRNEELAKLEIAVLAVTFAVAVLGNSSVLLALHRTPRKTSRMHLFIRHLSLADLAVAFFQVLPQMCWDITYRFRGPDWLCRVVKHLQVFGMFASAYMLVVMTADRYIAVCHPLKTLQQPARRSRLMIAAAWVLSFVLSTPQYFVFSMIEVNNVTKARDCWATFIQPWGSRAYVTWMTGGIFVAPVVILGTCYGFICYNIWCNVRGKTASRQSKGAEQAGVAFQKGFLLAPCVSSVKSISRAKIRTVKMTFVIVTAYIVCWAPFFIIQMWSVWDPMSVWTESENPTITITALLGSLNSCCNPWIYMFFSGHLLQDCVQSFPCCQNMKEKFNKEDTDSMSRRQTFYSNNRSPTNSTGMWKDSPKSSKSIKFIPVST
Protocol: as §1, §2
Vasopressin V1a receptor cell lines:
On the day before the assay, the cells are plated out in culture medium (DMEM/F12, 2% FCS, 2 mM glutamine, 10 mM HEPES, 5 μg/ml coelenterazine) in 384-well microtiter plates and kept in a cell incubator (96% humidity, 5% v/v CO2, 37° C.). On the day of the assay, test compounds in various concentrations are placed for 10 minutes in the wells of the microtiter plate before the agonist [Arg^8]-vasopressin at EC50 concentration is added. The resulting light signal is measured immediately in a luminometer.
as §3

IC50 (human V2 receptor) [nM] | IC50 (human V1a receptor) [nM] | ratio IC50 hV2/hV1a (human V1a receptor) | SMILES
33.4 | 286 | 0.1 | C[C@H](NC(=O)OC(C)(C)C)c1nc(Cn2nc(-c3ccc(Cl)cc3)n(C[C@H](O)C(F)(F)F)c2=O)nn1-c1cccc(Cl)c1 [Example 56, tert-Butyl {(1S)-1-[1-(3-chlorophenyl)-3-({3-(4-chlorophenyl)-5-oxo-4-[(2S)-3,3,3-trifluoro-2-hydroxypropyl]-4,5-dihydro-1H-1,2,4-triazol-1-yl}methyl)-1H-1,2,4-triazol-5-yl]ethyl}Carbamate]
385 | 17 | 22.7 | O=C1NC(c2nc(Cn3nc(-c4ccc(Cl)cc4)n(C[C@H](O)C(F)(F)F)c3=O)nn2-c2ncccc2OC(F)(F)F)CO1 (single isomer, unassigned) [Example 118]
595 | 64 | 9.3 | CNc1ccncc1-n1nc(Cn2nc(-c3ccc(Cl)cc3)n(C[C@H](O)C(F)(F)F)c2=O)nc1C(C)NC(C)=O (mixture of isomers) [Example 125, N-[1-{3-({3-(4-Chlorophenyl)-5-oxo-4-[(2S)-3,3,3-trifluoro-2-hydroxypropyl]-4,5-dihydro-1H-1,2,4-triazol-1-yl}methyl)-1-[4-(methylamino)pyridin-3-yl]-1H-1,2,4-triazol-5-yl}ethyl]acetamide hydrochloride]
1540 | 9.55 | 161.3 | CN1C(=O)CCC1c1nc(Cn2nc(-c3ccc(Cl)cc3)n(C[C@H](O)C(F)(F)F)c2=O)nn1CCC(F)(F)F (single isomer, unassigned) [Example 131]
1.76 | 1.1 | 1.6 | COc1ccccc1-n1nc(Cn2nc(-c3ccc(Cl)cc3)n(C[C@H](O)C(F)(F)F)c2=O)nc1C(C)OC(N)=O (single isomer, unassigned) [Example 39]
18 | 2.1 | 8.6 | O=C(NC(CO)c1nc(Cn2nc(-c3ccc(Cl)cc3)n(C[C@H](O)C(F)(F)F)c2=O)nn1-c1ccccc1Cl)C(F)(F)F (mixture of isomers) [Example 95, N-{1-[1-(2-Chlorophenyl)-3-({3-(4-chlorophenyl)-5-oxo-4-[(2S)-3,3,3-trifluoro-2-hydroxypropyl]-4,5-dihydro-1H-1,2,4-triazol-1-yl}methyl)-1H-1,2,4-triazol-5-yl]-2-hydroxyethyl}-2,2,2-trifluoroacetamide]
134 | 5.8 | 23.1 | O=C1NC(c2nc(Cn3nc(-c4ccc(Cl)cc4)n(C[C@H](O)C(F)(F)F)c3=O)nn2-c2ncccc2Cl)CO1 (single isomer, unassigned) [Example 113]
105 | 52.5 | 2.0 | C[C@H](OC(N)=O)c1nc(Cn2nc(-c3ccc(Cl)cc3)n(C[C@H](O)C(F)(F)F)c2=O)nn1-c1ccccn1 [Example 10, (1S)-1-[3-({3-(4-Chlorophenyl)-5-oxo-4-[(2S)-3,3,3-trifluoro-2-hydroxypropyl]-4,5-dihydro-1H-1,2,4-triazol-1-yl}methyl)-1-(pyridin-2-yl)-1H-1,2,4-triazol-5-yl]ethyl Carbamate]
6.85 | 1.35 | 5.1 | C[C@@H](OC(N)=O)c1nc(Cn2nc(-c3ccc(Cl)cc3)n(C[C@H](O)C(F)(F)F)c2=O)nn1-c1c(F)cccc1Cl [Example 3, (1R)-1-[1-(2-Chloro-6-fluorophenyl)-3-({3-(4-chlorophenyl)-5-oxo-4-[(2S)-3,3,3-trifluoro-2-hydroxypropyl]-4,5-dihydro-1H-1,2,4-triazol-1-yl}methyl)-1H-1,2,4-triazol-5-yl]ethyl Carbamate]
2.93 | 1.29 | 2.3 | NC(=O)OCc1nc(Cn2nc(-c3ccc(Cl)cc3)n(C[C@H](OC(N)=O)C(F)(F)F)c2=O)nn1-c1ccccc1Cl [Example 29, (2S)-3-[1-({5-[(Carbamoyloxy)methyl]-1-(2-chlorophenyl)-1H-1,2,4-triazol-3-yl}methyl)-3-(4-chlorophenyl)-5-oxo-1,5-dihydro-4H-1,2,4-triazol-4-yl]-1,1,1-trifluoropropan-2-yl Carbamate]
63 | 1.55 | 40.7 | C[C@H](OC(N)=O)c1nc(Cn2nc(-c3ccc(Cl)cc3)n(C[C@H](O)C(F)(F)F)c2=O)nn1-c1c(Cl)cncc1Cl [Example 19, (1S)-1-[3-({3-(4-Chlorophenyl)-5-oxo-4-[(2S)-3,3,3-trifluoro-2-hydroxypropyl]-4,5-dihydro-1H-1,2,4-triazol-1-yl}methyl)-1-(3,5-dichloropyridin-4-yl)-1H-1,2,4-triazol-5-yl]ethyl Carbamate]
52.5 | 160 | 0.3 | C[C@H](OC(N)=O)c1nc(Cn2nc(-c3ccc(Cl)cc3)n(C[C@H](O)C(F)(F)F)c2=O)nn1-c1ccc(Cl)cn1 [Example 16, (1S)-1-[3-({3-(4-Chlorophenyl)-5-oxo-4-[(2S)-3,3,3-trifluoro-2-hydroxypropyl]-4,5-dihydro-1H-1,2,4-triazol-1-yl}methyl)-1-(5-chloropyridin-2-yl)-1H-1,2,4-triazol-5-yl]ethyl Carbamate]
1550 | 53 | 29.3 | CNc1ccncc1-n1nc(Cn2nc(-c3ccc(Cl)cc3)n(C[C@H](O)C(F)(F)F)c2=O)nc1C(C)NC(C)=O (single isomer, unassigned) [Example 127]
6.62 | 0.77 | 8.6 | Cc1ccccc1-n1nc(Cn2nc(-c3ccc(Cl)cc3)n(C[C@H](O)C(F)(F)F)c2=O)nc1COC(N)=O [Example 37, [3-({3-(4-Chlorophenyl)-5-oxo-4-[(2S)-3,3,3-trifluoro-2-hydroxypropyl]-4,5-dihydro-1H-1,2,4-triazol-1-yl}methyl)-1-(2-methylphenyl)-1H-1,2,4-triazol-5-yl]methyl Carbamate]
14 | 2.15 | 6.5 | NC(=O)OCc1nc(Cn2nc(-c3ccc(Cl)cc3)n(C[C@H](O)C(F)(F)F)c2=O)nn1-c1ccccc1C(F)(F)F [Example 52, {3-({3-(4-Chlorophenyl)-5-oxo-4-[(2S)-3,3,3-trifluoro-2-hydroxypropyl]-4,5-dihydro-1H-1,2,4-triazol-1-yl}methyl)-1-[2-(trifluoromethyl)phenyl]-1H-1,2,4-triazol-5-yl}methyl Carbamate]
8.6 | 1.56 | 5.5 | CC(NC(=O)C(F)(F)F)c1nc(Cn2nc(-c3ccc(Cl)cc3)n(C[C@H](O)C(F)(F)F)c2=O)nn1-c1ccccc1Cl (mixture of isomers) [Example 73, N-{1-[1-(2-Chlorophenyl)-3-({3-(4-chlorophenyl)-5-oxo-4-[(2S)-3,3,3-trifluoro-2-hydroxypropyl]-4,5-dihydro-1H-1,2,4-triazol-1-yl}methyl)-1H-1,2,4-triazol-5-yl]ethyl}-2,2,2-trifluoroacetamide]
29.7 | 3.9 | 7.6 | COCCNC(=O)OCc1nc(Cn2nc(-c3ccc(Cl)cc3)n(C[C@H](O)C(F)(F)F)c2=O)nn1-c1ccccc1C(F)(F)F [Example 51, {3-({3-(4-Chlorophenyl)-5-oxo-4-[(2S)-3,3,3-trifluoro-2-hydroxypropyl]-4,5-dihydro-1H-1,2,4-triazol-1-yl}methyl)-1-[2-(trifluoromethyl)phenyl]-1H-1,2,4-triazol-5-yl}methyl (2-methoxyethyl)-carbamate]
6.63 | 0.67 | 9.9 | CN1C(=O)CCC1c1nc(Cn2nc(-c3ccc(Cl)cc3)n(C[C@H](O)C(F)(F)F)c2=O)nn1-c1ccccc1Cl (single isomer, unassigned) [Example 72]
